Here are results for 29 compounds from ChEMBL document CHEMBL6127121, “Development of N-(4-(1H-Imidazol-1-yl)phenyl)-4-chlorobenzenesulfonamide, a Novel Potent Inhibitor of β-Catenin with Enhanced Antitumor Activity and Metabolic Stability” (J Med Chem, 2024).

Calls of active or inactive are those of the source. No cut-off for these calls is given here.

Series [1] has as its system HCT-116. Nature of the series: Inhibition of Wnt/beta-catenin signaling in human HCT-116 cells assessed as residual activity at IC50 concentration incubated for 12 hrs by Topflash/Fopflash Dual-Glo luciferase reporter assay. The series is classed as cell-based. The note with it: dose 30.0 µM.
Series [2] relates to SW480. Put plainly: Inhibition of Wnt/beta-catenin signaling in human SW480 cells assessed as residual activity at IC50 concentration incubated for 12 hrs by Topflash/Fopflash Dual-Glo luciferase reporter assay. Format: cell-based. Conditions: dose 30.0 µM. Background: A reporter such as luciferase makes a cellular process visible.
Series [3] has as its system MDA-MB-231. Nature of the series: Antiproliferative activity against human MDA-MB-231 cells at 40 uM incubated for 24 hrs by IncuCyte live-cell imaging analysis. The series is classed as functional, cell-based.
The test system of series [4] is SW480. Nature of the series: Inhibition of cell growth in human SW480 cells incubated for 48 to 72 hrs by XTT method. Format: functional, cell-based. A general note: Formazan colour is commonly taken as a measure of viable cells.
Series [5] concerns HCT-116. Put plainly: Inhibition of cell growth in human HCT-116 cells incubated for 48 to 72 hrs by XTT method. The series is classed as functional, cell-based.
Series [6] can be described thus: Metabolic stability in mouse liver microsomes assessed as intrinsic clearance per mg protein preincubated for 10 mins followed by NADP, glucose-6-phosphate and glucose-6-phosphate dehydrogenase addition and measured upto 60 mins by LC-MS/MS analysis. The series is classed as ADME, Microsome. The note with it: time < 70 min, read-out: CLH. (Liver microsomes are a subcellular fraction often used to study metabolism.)

The nature of series [7]: Metabolic stability in mouse liver microsomes assessed as half life preincubated for 10 mins followed by NADP, glucose-6-phosphate and glucose-6-phosphate dehydrogenase addition and measured upto 60 mins by LC-MS/MS analysis. The series is classed as ADME, Microsome. The note with it: time < 70 min.
Series [8] is described as follows: Metabolic stability in human liver microsomes assessed as intrinsic clearance per mg protein preincubated for 10 mins followed by NADP, glucose-6-phosphate and glucose-6-phosphate dehydrogenase addition and measured upto 60 mins by LC-MS/MS analysis. Conditions: time < 70 min, read-out: CLH. Format: ADME, Microsome.
Series [9] can be described thus: Metabolic stability in human liver microsomes assessed as half life preincubated for 10 mins followed by NADP, glucose-6-phosphate and glucose-6-phosphate dehydrogenase addition and measured upto 60 mins by LC-MS/MS analysis. Format: ADME, Microsome. Conditions: time < 70 min.
The test system of series [10] is MDA-MB-231. Put plainly: Antiproliferative activity against human MDA-MB-231 cells at 13.33 uM incubated for 72 hrs by IncuCyte live-cell imaging analysis. The series is classed as functional, cell-based.
The subject of series [11] is MDA-MB-231. Put plainly: Antiproliferative activity against human MDA-MB-231 cells at 1.48 to 40 uM incubated for 72 hrs by IncuCyte live-cell imaging analysis. Format: functional, cell-based. The note with it: dose 1.48-40 µM.

As to `COC(=O)c1ccc(NS(=O)(=O)c2ccc(Br)cc2)cc1`, the Activity in [1] was found to be 2.5%; in [2], 19.4%.
Take `O=C1[C@H](Cc2ccc(O)cc2)N2C(=O)CCN(C(=O)NCc3ccccc3)[C@H]2CN1Cc1cccc2ccccc12`: the result in series [3] was Active.
For orientation: EC50 means the concentration needed to bring the measured effect to its halfway point. Consider `O=S(=O)(Nc1cccc(-n2ccnc2)c1)c1ccc(Br)cc1`, for which the Activity in [1] stood at 3.1%; in [2] it was 3.6%. Besides, the EC50 in series [4] and in [5] was over 50 µM throughout.
On to `CCOC(=O)c1ccc(NS(=O)(=O)c2ccc(Br)cc2)cc1`, for which the results for the Activity in [1] and in series [2] were 18.8% and 21.6%, respectively. Also, the concentration giving a half-maximal response (EC50) in [4] and in series [5] was over 50 µM throughout.
Turning to `O=S(=O)(Nc1cccc(-c2ccccn2)c1)c1ccc(C(F)(F)F)cc1`, the results for the Activity in series [1] and in [2] were 6.6% and 3.4%, respectively. Also, the EC50 in series [4] and in [5] was over 50 µM throughout.
In the case of `O=c1[nH]cc(F)c(=O)[nH]1` [FLUOROURACIL], the 50% effective concentration (EC50) in [4] amounted to 13.7 µM; in series [5], 23.1 µM.
For `O=S(=O)(Nc1ccc(-c2ccsc2)cc1)c1ccc(C(F)(F)F)cc1`, the values for the Activity in series [1] and in [2] were 2.4% and 5.6%, respectively. The EC50 in series [4] was found to be 17 µM; in series [5] it was 12 µM.
Regarding `O=S(=O)(Nc1ccc(-c2cccs2)cc1)c1ccc(C(F)(F)F)cc1`, the Activity in [1] was found to be 33.1%; in [2], 26.6%. Moreover, the EC50 stood at 45 µM in series [4] and 39 µM in series [5].
As for `O=S(=O)(Nc1cccc(-c2ccccn2)c1)c1ccc(-n2cccc2)cc1`, the results for the Activity in series [1] and in [2] were 6.4% and 6.3%, respectively. Moreover, the concentration for a half-maximal effect (EC50) in series [4] stood at 46 µM; in series [5], 66 µM.
The half-life is the time in which the quantity being followed falls by half. As to `CCOc1ccc2ccc(=O)oc2c1`, the microsomal CLint in [6] was 712 µL/min/mg; in series [8] it was 94 µL/min/mg. In addition, the half-life in series [7] was found to be 1.9 min; in series [9] it was 14.8 min.
As to `O=S(=O)(Nc1ccc(-c2ccoc2)cc1)c1ccc(C(F)(F)F)cc1`, the Activity in series [1] was found to be 9.7%; in series [2], 4.4%. For the same compound, the half-maximal effective concentration (EC50) in [4] is over 50 µM; in series [5], over 55 µM.
On to `O=S(=O)(Nc1cccc(-c2ccccc2)c1)c1ccc(Br)cc1`, for which the result in series [10] and in series [11] was Active. Besides, the values for the Activity in series [1] and in series [2] were 33.5% and 22.7%, respectively. For the same compound, the values for the EC50 in series [4] and in [5] were 12 µM and 9 µM, respectively.
As to `O=S(=O)(Nc1cccc(-n2ccnc2)c1)c1ccc(C(F)(F)F)cc1`, the Activity in [1] was found to be 5.1%; in [2], 9.1%. Further, the EC50 stood at 28 µM in [4] and 50 µM in series [5].
Take `O=S(=O)(Nc1ccc(-c2ccccc2)cc1)c1ccc(Br)cc1`: the Activity in [1] came to 3.2%; in series [2], 8.1%. In addition, the EC50 in series [4] stood at 31 µM; in series [5], 27 µM.
For `O=S(=O)(Nc1cccc(-c2ccccc2)c1)c1ccc(C(F)(F)F)cc1`, the Activity was determined as 36.4% in [1] and 28.3% in [2]. Besides, the figures for the 50% effective concentration (EC50) in series [4] and in series [5] were 43 µM and 48 µM, respectively.
Consider `O=S(=O)(Nc1cccc(-c2ccccn2)c1)c1ccc(I)cc1`, for which the Activity in series [1] came to 8.5%; in [2], 2.6%. Moreover, the concentration giving a half-maximal response (EC50) in series [4] amounted to 25 µM; in series [5] it was 39 µM.
As for `O=S(=O)(Nc1ccc(-c2ccccn2)cc1)c1ccc(Br)cc1`, the Activity in series [1] was 4.3%; in series [2], 8.8%. In addition, the 50% effective concentration (EC50) in [4] amounted to 34 µM; in [5], 24 µM.
On the same counts, the results for `O=S(=O)(Nc1ccc(-c2ccoc2)cc1)c1ccc(Br)cc1` are 32.1%, 28.4%, 35 µM and 62 µM.
On the same counts, the results for `O=S(=O)(Nc1cccc(-c2ccco2)c1)c1ccc(C(F)(F)F)cc1` are 2.7%, 5.3%, over 50 µM and over 50 µM.
`O=S(=O)(Nc1ccc(-n2ccnc2)cc1)c1ccc(C(F)(F)F)cc1`: the results for the Activity in [1] and in series [2] were 4.4% and 6%, respectively. Moreover, the EC50 in [4] was found to be 14 µM; in series [5], 16 µM.
Take `O=S(=O)(Nc1cccc(-c2ccsc2)c1)c1ccc(Br)cc1`: the results for the Activity in [1] and in series [2] were 0.8% and 2.7%, respectively. Also, the outcome in [11] and in series [3] was Active. The half-maximal effective concentration (EC50) in [4] worked out at 25 µM; in series [5], 19 µM.
`O=S(=O)(Nc1cccc(-c2ccoc2)c1)c1ccc(C(F)(F)F)cc1`: the Activity in series [1] is 6.7%; in series [2] it was 7.4%. Further, the 50% effective concentration (EC50) in series [4] and in series [5] was over 50 µM in each case.
Turning to `O=S(=O)(Nc1ccc(-c2ccco2)cc1)c1ccc(C(F)(F)F)cc1`, the Activity in [1] came to 2.4%; in [2], 6.6%. The half-maximal effective concentration (EC50) in series [4] and in series [5] was over 50 µM throughout.
Consider `CC(C)NCC(O)COc1cccc2ccccc12` (stereo not given) [PROPRANOLOL], for which the half-life in series [9] was determined as 35.2 min.
Consider `O=S(=O)(Nc1ccc(-c2ccccc2)cc1)c1ccc(C(F)(F)F)cc1`, for which the Activity in [1] came out at 22.4%; in series [2] it was 37.3%. Further, the concentration giving a half-maximal response (EC50) in [4] was 8.7 µM; in [5], 12 µM.
Taken in the same sequence, the figures for `O=S(=O)(Nc1ccc(-n2ccnc2)cc1)c1ccc(Br)cc1` were 6.4%, 7.2%, over 50 µM and over 50 µM.
As to `O=S(=O)(Nc1ccc(-c2ccsc2)cc1)c1ccc(Br)cc1`, the Activity in series [1] stood at 8.6%; in series [2] it was 3.7%. Moreover, the EC50 in [4] came to 27 µM; in series [5], 32 µM.
Take `O=S(=O)(Nc1cccc(-c2ccoc2)c1)c1ccc(Br)cc1`: the Activity came out at 5.7% in [1] and 1.6% in series [2]. The concentration giving a half-maximal response (EC50) was found to be 38 µM in series [4] and 35 µM in series [5].
On the same counts, the results for `O=S(=O)(Nc1cccc(-n2ccnc2)c1)c1ccc(Cl)cc1` are 8.4%, 2.3%, over 50 µM and over 50 µM.
